PubChem BioAssay AID330 (DTP/NCI, 2004)
Where “and” joins values, the source holds several entries; their conditions need not be identical. Equal values may be shown once. Inconclusive results and toxic doses are left out. Peptide text beside a SMILES is read from it. * marks the point of attachment. CH2Cl = ClC*

Test system: P388 leukemia ip, CD2F1 mice, survival T/C
Assay: NCI In Vivo Anticancer Drug Screen. Data for tumor model P388 Leukemia (intraperitoneal) in CD2F1 (CDF1) mice
Settings: endpoint: median survival time, higher = longer survival
Method in brief: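 Mice carrying the transplanted tumor received test compound or vehicle. Survival was recorded in each group, and the value is the treated-group measurement divided by that of the vehicle-treated control group.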

[1] = dose: 25.0 mg/kg/injection, schedule: Q01DX005 (ip), vehicle: Klucel (hydroxypropylcellulose) (HPC)
[2] = dose: 50.0 mg/kg/injection, schedule: Q01DX005 (ip), vehicle: Klucel (hydroxypropylcellulose) (HPC)
[3] = dose: 60.0 mg/kg/injection, schedule: Q01DX005 (ip), vehicle: saline with Tween-80
[4] = dose: 120.0 mg/kg/injection, schedule: Q01DX005 (ip), vehicle: saline with Tween-80
[5] = dose: 240.0 mg/kg/injection, schedule: Q01DX005 (ip), vehicle: saline with Tween-80
[6] = dose: 50.0 mg/kg/injection, schedule: Q01DX005 (ip), vehicle: saline with Tween-80
[7] = dose: 100.0 mg/kg/injection, schedule: Q01DX005 (ip), vehicle: saline with Tween-80
[8] = dose: 200.0 mg/kg/injection, schedule: Q01DX005 (ip), vehicle: saline with Tween-80
[9] = dose: 25.0 mg/kg/injection, schedule: Q01DX009 (ip), vehicle: Klucel (hydroxypropylcellulose) (HPC)
[10] = dose: 50.0 mg/kg/injection, schedule: Q01DX009 (ip), vehicle: Klucel (hydroxypropylcellulose) (HPC)
[11] = dose: 100.0 mg/kg/injection, schedule: Q01DX009 (ip), vehicle: Klucel (hydroxypropylcellulose) (HPC)
[12] = dose: 100.0 mg/kg/injection, schedule: Q01DX005 (ip), vehicle: Klucel (hydroxypropylcellulose) (HPC)

With `CCCCCC(C)(O)C1=NCCN1` (stereo unspecified) the T/C (dose: 12.5 mg/kg/injection, schedule: Q01DX005 (ip), vehicle: Klucel (hydroxypropylcellulose) (HPC)) was 97 % of control, the T/C [1] was 95 % of control and the T/C [2] was 100 % of control and 93 % of control.
In the case of `Nc1ncnc2c1nc([Se])n2C1OC(CO)C(O)C1O` (stereo unspecified), the T/C (dose: 25.0 mg/kg/injection, schedule: Q01DX005 (ip), vehicle: other) is reported as 97 % of control, the T/C (dose: 100.0 mg/kg/injection, schedule: Q01DX005 (ip), vehicle: other) is reported as 97 % of control and the T/C (dose: 200.0 mg/kg/injection, schedule: Q01DX005 (ip), vehicle: other) is reported as 86 % of control. For the same compound, the T/C (dose: 400.0 mg/kg/injection, schedule: Q01DX005 (ip), vehicle: other) was 105 % of control.
For `Cc1nc(Nc2ccccc2)c2c(C)c(C)[nH]c2n1`, the T/C [3] was 103 % of control, the T/C [4] was 102 % of control and the T/C [5] was 98 % of control.
In the case of `CCCCN1C(=O)[C@@H]2[C@H](c3ccccc3O)C(c3ccccc3O)[C@@H]2C1=O` (stereo partly specified), the T/C (dose: 60.0 mg/kg/injection, schedule: Q01DX005 (ip), vehicle: Klucel (hydroxypropylcellulose) (HPC)) is reported as 100 % of control, the T/C (dose: 120.0 mg/kg/injection, schedule: Q01DX005 (ip), vehicle: Klucel (hydroxypropylcellulose) (HPC)) is reported as 92 % of control and the T/C (dose: 240.0 mg/kg/injection, schedule: Q01DX005 (ip), vehicle: Klucel (hydroxypropylcellulose) (HPC)) is reported as 100 % of control.
For `COc1cccc2c1C(=O)c1c(O)c3c(c(O)c1C2=O)CC(O)(C(=O)C(C)C)CC3OC1CC(N)C(O)C(C)O1` (stereo unspecified), the T/C (dose: 3.13 mg/kg/injection, schedule: Q01DX009 (ip), vehicle: water) was 117 % of control, the T/C (dose: 4.7 mg/kg/injection, schedule: Q04DX003 (ip), vehicle: water) was 115 % of control and the T/C (dose: 6.25 mg/kg/injection, schedule: Q01DX009 (ip), vehicle: water) was 117 % of control. For the same compound, the T/C (dose: 9.4 mg/kg/injection, schedule: Q04DX003 (ip), vehicle: water) was 110 % of control, the T/C (dose: 18.8 mg/kg/injection, schedule: Q04DX003 (ip), vehicle: water) was 101 % of control and the T/C (dose: 75.0 mg/kg/injection, schedule: Q04DX003 (ip), vehicle: water) was 92 % of control.
For `COc1ccc(/C=N/NC(=O)c2ccc(OCc3nc4ccccc4[nH]3)cc2)cc1`, the T/C (dose: 25.0 mg/kg/injection, schedule: Q01DX005 (ip), vehicle: saline with Tween-80) was 100 % of control, the T/C [6] was 105 % of control and the T/C [7] was 100 % of control. For the same compound, the T/C [8] was 100 % of control.
In the case of `OC1C2CC3CC(C2)CC1(C#CC1(O)C2CC4CC(C2)CC1C4)C3` (stereo unspecified), the T/C [9] is reported as 100 % of control, the T/C [10] is reported as 100 % of control and the T/C [11] is reported as 93 % of control.
For `Nc1ccc(N=Nc2cccc3c(N=Nc4ccc(N)nc4N)cccc23)c(N)n1`, the T/C [1] was 97 % of control, the T/C [2] was 100 % of control and the T/C [12] was 98 % of control. For the same compound, the T/C (dose: 200.0 mg/kg/injection, schedule: Q01DX005 (ip), vehicle: Klucel (hydroxypropylcellulose) (HPC)) was 93 % of control.
With `O=c1ccnc[nH]1` the T/C (dose: 100.0 mg/kg/injection, schedule: Q04DX002 (ip), vehicle: saline with Tween-80) was 105 % of control and the T/C (dose: 200.0 mg/kg/injection, schedule: Q04DX002 (ip), vehicle: saline with Tween-80) was 93 % of control.
For `C[CH2][Sn]([c]1ccccc1)([c]1ccccc1)[c]1ccccc1`, the T/C (dose: 12.5 mg/kg/injection, schedule: Q04DX003 (ip), vehicle: saline with Tween-80) was 95 % of control, the T/C (dose: 25.0 mg/kg/injection, schedule: Q04DX003 (ip), vehicle: saline with Tween-80) was 100 % of control and the T/C (dose: 50.0 mg/kg/injection, schedule: Q04DX003 (ip), vehicle: saline with Tween-80) was 100 % of control.
For `COc1ccc(/C=C/C(=O)c2cc(C(=O)O)c(OC)cc2OC)cc1OC`, the T/C (dose: 50.0 mg/kg/injection, schedule: Q01DX009 (ip), vehicle: suspension in saline) was 117 % of control and 120 % of control and the T/C (dose: 100.0 mg/kg/injection, schedule: Q01DX009 (ip), vehicle: suspension in saline) was 123 % of control.
For `C1=C2COCOC3CCN(C1)C23` (stereo unspecified), the T/C (dose: 34.32 mg/kg/injection, schedule: Q01DX005 (ip), vehicle: saline) was 101 % of control, the T/C (dose: 68.64 mg/kg/injection, schedule: Q01DX005 (ip), vehicle: saline) was 107 % of control and the T/C (dose: 137.28 mg/kg/injection, schedule: Q01DX005 (ip), vehicle: saline) was 108 % of control.
For `CSc1nc(COC(=O)NC(C)C)c(COC(=O)NC(C)C)n1-c1ccccc1`, the T/C (dose: 12.5 mg/kg/injection, schedule: Q01DX005 (ip), vehicle: Klucel + Tween-80) was 111 % of control, the T/C (dose: 25.0 mg/kg/injection, schedule: Q01DX005 (ip), vehicle: Klucel + Tween-80) was 101 % of control and the T/C (dose: 50.0 mg/kg/injection, schedule: Q01DX005 (ip), vehicle: Klucel + Tween-80) was 95 % of control. For the same compound, the T/C (dose: 100.0 mg/kg/injection, schedule: Q01DX005 (ip), vehicle: Klucel + Tween-80) was 97 % of control, the T/C (dose: 200.0 mg/kg/injection, schedule: Q01DX005 (ip), vehicle: Klucel + Tween-80) was 90 % of control and the T/C (dose: 400.0 mg/kg/injection, schedule: Q01DX005 (ip), vehicle: Klucel + Tween-80) was 100 % of control.
In the case of `CC(=O)NC(CC(C)C)C(=O)NC(Cc1ccccc1)C(=O)CCl` (stereo not drawn) (Ac-Leu-Phe-CH2Cl; configuration not given here), the T/C (dose: 3.12 mg/kg/injection, schedule: Q01DX009 (ip), vehicle: Klucel (hydroxypropylcellulose) (HPC)) is reported as 103 % of control, the T/C (dose: 6.25 mg/kg/injection, schedule: Q01DX009 (ip), vehicle: Klucel (hydroxypropylcellulose) (HPC)) is reported as 113 % of control and the T/C (dose: 12.5 mg/kg/injection, schedule: Q01DX009 (ip), vehicle: Klucel (hydroxypropylcellulose) (HPC)) is reported as 120 % of control. The T/C [9] was 116 % of control.
With `CCOC(=O)N1CC2C=CC1C(C(=O)OC)=C2C(=O)OC` (stereo unspecified) the T/C [10] was 109 % of control, the T/C [11] was 113 % of control and the T/C (dose: 200.0 mg/kg/injection, schedule: Q01DX009 (ip), vehicle: Klucel (hydroxypropylcellulose) (HPC)) was 113 % of control.
For `COc1cc2c(c(OC)c1OC)CCC1C(=O)NN=C21` (stereo unspecified), the T/C (dose: 12.5 mg/kg/injection, schedule: Q04DX003 (ip), vehicle: Klucel (hydroxypropylcellulose) (HPC)) was 111 % of control, the T/C (dose: 25.0 mg/kg/injection, schedule: Q04DX003 (ip), vehicle: Klucel (hydroxypropylcellulose) (HPC)) was 104 % of control and the T/C (dose: 50.0 mg/kg/injection, schedule: Q04DX003 (ip), vehicle: Klucel (hydroxypropylcellulose) (HPC)) was 111 % of control.
`CCN(CC)c1ccc(/C=N\NC(=O)C(=O)N/N=C\c2ccc(N(CC)CC)cc2)cc1` was tested, and the T/C [6] was 87 % of control, the T/C [7] was 87 % of control and the T/C [8] was 89 % of control.
In the case of `O=C1C2CCCN2C(=O)N1c1ccc([N+](=O)[O-])cc1` (stereo unspecified), the T/C (dose: 100.0 mg/kg/injection, schedule: Q01DX001 (ip), vehicle: Klucel (hydroxypropylcellulose) (HPC)) is reported as 97 % of control, the T/C (dose: 200.0 mg/kg/injection, schedule: Q01DX001 (ip), vehicle: Klucel (hydroxypropylcellulose) (HPC)) is reported as 97 % of control and the T/C (dose: 400.0 mg/kg/injection, schedule: Q01DX001 (ip), vehicle: Klucel (hydroxypropylcellulose) (HPC)) is reported as 99 % of control.
`CN=C(c1ccc(NC(=O)c2cccc(C(=O)Nc3ccc(C(=NC)N(C)C4CCCCC4)cc3)c2)cc1)N(C)C1CCCCC1` was tested, and the T/C (dose: 1.56 mg/kg/injection, schedule: Q01DX005 (ip), vehicle: Klucel (hydroxypropylcellulose) (HPC)) was 104 % of control and the T/C (dose: 3.12 mg/kg/injection, schedule: Q01DX005 (ip), vehicle: Klucel (hydroxypropylcellulose) (HPC)) was 102 % of control.
For `Nc1cc2c(c[n+](CCCCCCCCC[n+]3cc4c5ccccc5c(N)cc4c4ccccc43)c3ccccc23)c2ccccc12`, the T/C (dose: 0.39 mg/kg/injection, schedule: Q04DX003 (ip), vehicle: other) was 150 % of control, the T/C (dose: 0.78 mg/kg/injection, schedule: Q04DX003 (ip), vehicle: other) was 173 % of control and the T/C (dose: 1.56 mg/kg/injection, schedule: Q04DX003 (ip), vehicle: other) was 162 % of control. For the same compound, the T/C (dose: 3.13 mg/kg/injection, schedule: Q04DX003 (ip), vehicle: other) was 173 % of control, the T/C (dose: 6.25 mg/kg/injection, schedule: Q04DX003 (ip), vehicle: other) was 169 % of control and 191 % of control and the T/C (dose: 12.5 mg/kg/injection, schedule: Q04DX003 (ip), vehicle: other) was 117 % of control and 95 % of control.
For `O=C1C=CC(=Nc2cccc3c(N=C4C=CC(=O)O4)cccc23)O1`, the T/C [1] was 107 % of control, the T/C [2] was 111 % of control and the T/C [12] was 115 % of control.
`COC(=O)c1[nH]c(=O)c(C#N)c(C(=O)OC)c1C(=O)/C=C/c1ccccc1` was tested, and the T/C [3] was 100 % of control, the T/C [4] was 96 % of control and the T/C [5] was 90 % of control.
